A word on the IC50: it is the point on the concentration scale where inhibition reaches its midpoint.

Results on eleven molecules are retold here after patent publication US11845748B2, “Bicyclic pyridine N-oxide derivatives useful as a factor XIa inhibitors” (Janssen Pharmaceutica NV, priority 2021, dated 2023).

Some results are limits rather than exact numbers.

One assay has as its target Factor XIa (Homo sapiens, UniProt P03951). Nature of the assay: Factor XIa inhibition assay utilizing a fluorophore-quencher pair peptide substrate (FLINT). Format: biochemical. The note with it: kinetic reads at 5 min intervals over 30 min; 30 min preincubation; 5Fam-KLTRAETV-K5Tamra substrate; read-out: FXIa (KIN) IC50. An excerpt:
Biological Example 1: Factor XIa Inhibition Assay Utilizing a Fluorophore-Quencher Pair Peptide Substrate
A fluorescence intensity (FLINT) based assay was used to monitor inhibition of Factor XIa. The peptide substrate, 5Fam-KLTRAETV-K5Tamra (purchased from New England Peptide) was chosen based on the […]. Conversion of zymogen […]. The custom peptide used in this assay was based on the Arg146 cleavage site of FXI. The peptide substrate was designed with a fluorophore-quencher pair, where the fluorescence is quenched until FXIa cleaves the 8-mer peptide after the Arg residue. The substrate KM was fit to a substrate inhibition model whereby kcat=0.86 s^−1, KM=12.4 μM, Ki=61.6 μM with an enzymatic efficiency, and kcat/KM=69523 M^−1s^−1.
The Factor XIa FLINT assay was used with the following 5Fam-KLTRAETV-K5Tamra assay buffer: 50 mM Tris, pH 7.5, 100 mM NaCl, 5 mM CaCl2, 0.1 mg/mL BSA, 0.03% CHAPS. Assay buffer was prepared by mixing all ingredients fresh. 5Fam-KLTRAETV-K5Tamra peptide substrate was first prepared at 10 mM in 100% DMSO, then diluted to 3 mM in 100% DMSO. Assay buffer was then added directly to the 3 mM stock of substrate to prepare the 30 μM 2× working concentration (15 μM final concentration). The 2× Factor XIa stock solution was prepared by diluting 6.562 μM stock in 1× assay buffer for a 200 pM working stock solution (100 pM final concentration).
Test compound(s) were run in an 11-point, 3-fold serial dilution with a final top compound concentration of 100 nM. Final DMSO in assay was 2%. FXIa was preincubated with compound for 30-minutes and then substrate was added to initiate the reaction. The assay was run with either end point (EP) reads at 30 min or kinetic (KIN) reads at 5 min intervals over 30 minutes. The time course was linear using 100 μM FXIa greater than 30 minutes. More specifically, the assay was run as follows: • 100 nL of 0.01 mM test compound was dispensed into black 384-well non-binding Greiner BioOne 784900 plate for 0.1 μM final concentration; • 5 μL of 1× assay buffer was dispensed to column 24 (low control) and 5 μL 2× Factor XIa solution was dispensed to columns 1-23 (column 23 high control); • the plate was centrifuged with a “cover” plate at 500 rpm for 1 min the plate was pre-incubated for 30 minutes at room temperature with plate covered; • 5 μL of 2× 5Fam-KLTRAETV-K5Tamra peptide substrate was dispensed into the entire plate, columns 1-24; • the plate was centrifuged with a “cover” plate at 500 rpm for 1 min; • the plate was read monitoring fluorescence intensity on the BMG PHERAStar at room temperature, using fluorescence module 485 nm/520 nm.
Percent inhibition (IC50) curves were generated per compound tested, and data was analyzed using a 4-parameter logistic fit using GeneData Screener. The relative fluorescence unit (RFU) values were normalized to percent inhibition using the following equation: % inhibition=((HC−LC)−(compound−LC)/(HC−LC))*100 where LC—low control=mean signal of no Factor XIa or 100% inhibition of Factor XIa; HC—high control=mean signal of Factor XIa+5Fam-KLTRAETV-K5Tamra peptide substrate with DMSO only.
(§1) An 11-point dose response curve for the test compound(s) was generated using GENDATA to determine IC50 value based on the following equation: Y=Bottom+(Top−Bottom)/(1+10^((log IC50−X)*HillSlope))
where Y is the % inhibition in the presence of X inhibitor concentration, Top=high control=mean signal of Factor XIa+5Fam-KLTRAETV-K5Tamra peptide substrate with DMSO only; Bottom=low control−mean signal of no Factor XIa or 100% inhibition of Factor XIa; HillSlope—Hill coefficient; and IC50=concentration of compound with 50% inhibition in relation to top/high control. […]

For the next assay, the target named is human plasma kallikrein (Homo sapiens, UniProt P03952). Nature of the assay: Kallikrein inhibition assay utilizing a quenched AMC peptide substrate (FLINT). Format: biochemical. Conditions: kinetic reads at 5 min intervals over 30 min; 30 min preincubation; Z-Gly-Pro-Arg-AMC substrate; read-out: Kallikrein (KIN) IC50. Here is the method: Biological Example 2: Kallikrein Inhibition Assay Utilizing a Quenched AMC Peptide Substrate
A fluorescence intensity (FLINT) based assay was used to monitor inhibition of human plasma kallikrein. The peptide substrate, Z-Gly-Pro-Arg-AMC (Purchased from Bachem; Catalog #I-1150) was chosen based on its relatively low KM for kallikrein which enables running the assay at lower substrate concentrations to control background fluorescence. The kinetic parameters for this substrate were determined by fitting titration data to the Michaelis-Menten equation yielding a KM=40 μM, kcat=0.76 s^−1, and kcat/KM=18932 M^−1s^−1.
The Kallikrein FLINT assay was used with the following Z-Gly-Pro-Arg-AMC assay buffer: 50 mM Tris, pH 7.5, 100 mM NaCl, 5 mM CaCl2, 0.1 mg/mL BSA, 0.03% CHAPS. Assay buffer was prepared by mixing all ingredients fresh. 2× Z-Gly-Pro-Arg-AMC peptide substrate was prepared by diluting 10 mM stock into 1× assay buffer for a 100 μM working concentration (50 μM final concentration). The 2× kallikrein stock solution was prepared by diluting 14.76 μM stock in 1× assay buffer for a 4 nM working stock solution (2 nM final concentration).
Test compound(s) were run in an 11-point, 3-fold serial dilution with a final top compound concentration of 1 μM. Final DMSO in assay was 2%. Plasma kallikrein was pre-incubated for 30-minute with compound and then 50 μM substrate was added to initiate the reaction. The assay was run with kinetic (KIN) reads at 5 min intervals over 30 minutes. The time course was linear using 2 nM kallikrein greater than 30 minutes. More specifically, the assay was run as follows: • 100 nL of 0.1 mM test compound was dispensed into black 384-well non-binding Greiner BioOne 784900 plate for 1 μM final concentration; • 5 μL of 1× assay buffer was dispensed to columns 24 (low control) and 5 μL 2× human kallikrein enzyme solution was dispensed to columns 1-23 (column 23 high control); • the plate was centrifuged with a “cover” plate at 500 rpm for 1 min the plate was pre-incubated for 30 minutes at room temperature with plate covered; • 5 μL of 2× Z-Gly-Pro-Arg-AMC peptide substrate was dispensed into the entire plate, columns 1-24; • the plate was centrifuged with a “cover” plate at 500 rpm for 1 min; • the plate was read monitoring fluorescence intensity on the BMG PHERAStar at room temperature, using fluorescence module 340 nm/440 nm.
Percent inhibition (IC50) curves were generated per compound tested, and data was analyzed using a 4-parameter logistic fit using GeneData Screener. The relative fluorescence unit (RFU) values were normalized to percent inhibition using the following equation: % inhibition=((HC−LC)−(compound−LC)/(HC−LC))*100
where LC—low control=mean signal of […] 100% inhibition of human kallikrein enzyme; HC—high control=mean signal of […]+Z-Gly-Pro-Arg-AMC peptide substrate with DMSO only.
as §1
where Y is the % inhibition in the presence of X inhibitor concentration, Top=high control=mean signal of human kallikrein enzyme+Z-Gly-Pro-Arg-AMC peptide substrate with DMSO only; Bottom=low control−mean signal of no human kallikrein enzyme or 100% inhibition of human kallikrein enzyme; HillSlope—Hill coefficient; and IC50=concentration of compound with 50% inhibition in relation to top/high control.
Representative compounds of formula (I) of the present invention were tested according to the procedure described in Biological Example 1 and Biological Example 2 above, with results as listed in Table 2, below. Results listed in the (ER) column were measured using endpoint reads where a single fluorescence reading was measured for each well at a 30 min timepoint. […]

Chain of human plasma kallikrein (P03952 391-638 limits assumed): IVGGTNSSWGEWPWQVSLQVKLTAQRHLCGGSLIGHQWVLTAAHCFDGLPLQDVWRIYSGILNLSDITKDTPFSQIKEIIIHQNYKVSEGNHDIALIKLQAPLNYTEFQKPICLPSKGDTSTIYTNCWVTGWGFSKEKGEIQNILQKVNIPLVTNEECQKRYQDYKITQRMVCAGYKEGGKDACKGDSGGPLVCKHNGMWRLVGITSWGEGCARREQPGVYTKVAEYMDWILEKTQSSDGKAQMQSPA
Chain of human plasma kallikrein (P03952 20-390 partner limits assumed): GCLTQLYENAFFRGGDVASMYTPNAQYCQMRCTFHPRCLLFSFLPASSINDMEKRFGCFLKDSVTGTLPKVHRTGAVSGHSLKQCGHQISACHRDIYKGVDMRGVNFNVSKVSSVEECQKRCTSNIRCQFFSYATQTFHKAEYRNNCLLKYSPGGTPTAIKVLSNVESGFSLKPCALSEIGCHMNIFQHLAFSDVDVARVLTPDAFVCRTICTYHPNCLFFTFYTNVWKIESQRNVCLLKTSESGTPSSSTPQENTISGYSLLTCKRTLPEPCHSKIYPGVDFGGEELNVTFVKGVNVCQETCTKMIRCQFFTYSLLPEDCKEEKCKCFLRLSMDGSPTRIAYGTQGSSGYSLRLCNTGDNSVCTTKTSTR
Chain of Factor XIa (P03951 388-625 limits assumed): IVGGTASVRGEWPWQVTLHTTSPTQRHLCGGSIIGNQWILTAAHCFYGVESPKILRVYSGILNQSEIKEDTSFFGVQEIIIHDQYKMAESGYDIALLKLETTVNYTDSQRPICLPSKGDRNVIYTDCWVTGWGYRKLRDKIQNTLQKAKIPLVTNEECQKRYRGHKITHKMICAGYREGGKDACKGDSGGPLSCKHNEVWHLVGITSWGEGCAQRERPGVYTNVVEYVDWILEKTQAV
Chain of Factor XIa (P03951 19-387 partner limits assumed): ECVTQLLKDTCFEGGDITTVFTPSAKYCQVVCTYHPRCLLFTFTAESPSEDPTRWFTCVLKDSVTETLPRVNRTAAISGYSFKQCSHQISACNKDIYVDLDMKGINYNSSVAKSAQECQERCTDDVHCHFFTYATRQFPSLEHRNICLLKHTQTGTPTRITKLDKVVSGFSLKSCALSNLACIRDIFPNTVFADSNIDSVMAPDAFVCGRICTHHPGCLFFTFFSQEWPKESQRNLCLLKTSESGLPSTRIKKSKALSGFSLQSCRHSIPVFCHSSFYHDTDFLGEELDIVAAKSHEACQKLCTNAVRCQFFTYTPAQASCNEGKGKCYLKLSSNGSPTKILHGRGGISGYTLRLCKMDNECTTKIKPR

On to `O=C(Nc1ccc(-c2cnn(C3CCc4cc(-c5c(-n6cnnn6)ccc(Cl)c5F)c[n+]([O-])c43)c2)cc1)C1CC1` (racemic) [ID No. 16, 3-(3-Chloro-2-fluoro-6-(1H-tetrazol-1-yl)phenyl)-7-(4-(4-(cyclopropanecarboxamido)phenyl)-1H-pyrazol-1-yl)-6,7-dihydro-5H-cyclopenta[b]pyridine 1-oxide], for which the values for the IC50 on Factor XIa and on human plasma kallikrein were 0.025 µM and 0.316 µM, respectively.

Turning to `Nc1ccc(-c2cnn(C3CCc4cc(-c5c(-n6cnnn6)ccc(Cl)c5F)c[n+]([O-])c43)c2)c(Cl)n1` (racemic) [ID No. 17, 7-(4-(6-Amino-2-chloropyridin-3-yl)-1H-pyrazol-1-yl)-3-(3-Chloro-2-fluoro-6-(1H-tetrazol-1-yl)phenyl)-6,7-dihydro-5H-cyclopenta[b]pyridine 1-oxide], the IC50 was determined as 0.005 µM at Factor XIa and 0.432 µM on human plasma kallikrein.

Regarding `O=C(NC1CC1)c1ccc(-c2cnn(C3CCc4cc(-c5c(-n6cnnn6)ccc(Cl)c5F)c[n+]([O-])c43)c2)cc1` (racemic) [ID No. 18, 3-(3-Chloro-2-fluoro-6-(1H-tetrazol-1-yl)phenyl)-7-(4-(4-(cyclopropylcarbamoyl)phenyl)-1H-pyrazol-1-yl)-6,7-dihydro-5H-cyclopenta[b]pyridine 1-oxide], the IC50 at Factor XIa worked out at 0.282 µM; on human plasma kallikrein, 1.09 µM.

Regarding `Cn1ncc(-c2cnn(C3CCc4cc(-c5c(-n6cnnn6)ccc(Cl)c5F)c[n+]([O-])c43)c2)cc1=O` (racemic) [ID No. 19, 3-(3-Chloro-2-fluoro-6-(1H-tetrazol-1-yl)phenyl)-7-(4-(1-methyl-6-oxo-1,6-dihydropyridazin-4-yl)-1H-pyrazol-1-yl)-6,7-dihydro-5H-cyclopenta[b]pyridine 1-oxide], the half-maximal inhibitory concentration (IC50) at Factor XIa is 1.17 µM; at human plasma kallikrein, 6.36 µM.

Regarding `Cn1c(-c2cnn(C3CCc4cc(-c5c(-n6cnnn6)ccc(Cl)c5F)c[n+]([O-])c43)c2)cccc1=O` (racemic) [ID No. 20, 3-(3-Chloro-2-fluoro-6-(1H-tetrazol-1-yl)phenyl)-7-(4-(1-methyl-6-oxo-1,6-dihydropyridin-2-yl)-1H-pyrazol-1-yl)-6,7-dihydro-5H-cyclopenta[b]pyridine 1-oxide], the 50% inhibitory concentration (IC50) is 3.11 µM at Factor XIa and above 10 µM at human plasma kallikrein.

Regarding `Cc1cc(-c2cnn(C3CCc4cc(-c5c(-n6cnnn6)ccc(Cl)c5F)c[n+]([O-])c43)c2)ccn1` (racemic) [ID No. 23, 3-(3-Chloro-2-fluoro-6-(1H-tetrazol-1-yl)phenyl)-7-(4-(2-methylpyridin-4-yl)-1H-pyrazol-1-yl)-6,7-dihydro-5H-cyclopenta[b]pyridine 1-oxide], the half-inhibitory concentration (IC50) on Factor XIa amounted to 0.032 µM; at human plasma kallikrein, 0.393 µM.

Regarding `[O-][n+]1cc(-c2c(-n3cnnn3)ccc(Cl)c2F)cc2c1C(n1cc(-c3ccnc(C4CC4)c3)cn1)CC2` (racemic) [ID No. 24, 3-(3-Chloro-2-fluoro-6-(1H-tetrazol-1-yl)phenyl)-7-(4-(2-cyclopropylpyridin-4-yl)-1H-pyrazol-1-yl)-6,7-dihydro-5H-cyclopenta[b]pyridine 1-oxide], the results for the IC50 on Factor XIa and at human plasma kallikrein were 0.04 µM and 0.07 µM, respectively.

In the case of `CC(=O)Nc1ccc(-c2cnn(C3CCCc4cc(-c5c(-n6cnnn6)ccc(Cl)c5F)c[n+]([O-])c43)c2)c(F)n1` (racemic) [ID No. 29, 8-(4-(6-Acetamido-2-fluoropyridin-3-yl)-1H-pyrazol-1-yl)-3-(3-chloro-2-fluoro-6-(1H-tetrazol-1-yl)phenyl)-5,6,7,8-tetrahydroquinoline 1-oxide], the half-inhibitory concentration (IC50) at Factor XIa worked out at 0.765 µM; at human plasma kallikrein it was 8.48 µM.

For the molecule `Nc1nc(F)c(-c2cnn(C3CCCc4cc(-c5c(-n6cnnn6)ccc(Cl)c5F)c[n+]([O-])c43)c2)cc1Cl` (racemic) [ID No. 30, 8-(4-(6-Amino-5-chloro-2-fluoropyridin-3-yl)-1H-pyrazol-1-yl)-3-(3-chloro-2-fluoro-6-(1H-tetrazol-1-yl)phenyl)-5,6,7,8-tetrahydroquinoline 1-oxide], the half-inhibitory concentration (IC50) at Factor XIa was found to be 1.26 µM; on human plasma kallikrein, 2.88 µM.

In the case of `Nc1ccc(-c2cnn(C3CCc4cc(-c5c(-n6cnnn6)ccc(Cl)c5F)c[n+]([O-])c43)c2)c(Cl)n1` (single isomer, unassigned) [ID No. 21, (R*)-7-(4-(6-Amino-2-chloropyridin-3-yl)-1H-pyrazol-1-yl)-3-(3-chloro-2-fluoro-6-(1H-tetrazol-1-yl)phenyl)-6,7-dihydro-5H-cyclopenta[b]pyridine 1-oxide], the IC50 was 2.38 µM on Factor XIa and above 10 µM on human plasma kallikrein.

In the case of `Nc1ccc(-c2cnn(C3CCc4cc(-c5c(-n6cnnn6)ccc(Cl)c5F)c[n+]([O-])c43)c2)c(Cl)n1` (single isomer, unassigned) [ID No. 22, (S*)-7-(4-(6-Amino-2-chloropyridin-3-yl)-1H-pyrazol-1-yl)-3-(3-chloro-2-fluoro-6-(1H-tetrazol-1-yl)phenyl)-6,7-dihydro-5H-cyclopenta[b]pyridine 1-oxide], the values for the 50% inhibitory concentration (IC50) at Factor XIa and on human plasma kallikrein were 0.003 µM and 0.176 µM, respectively.
